According to ChEMBL document CHEMBL1139308, “Identification and synthesis of 2,7-diamino-thiazolo[5,4-d]pyrimidine derivatives as TRPV1 antagonists” (Bioorg Med Chem Lett, 2009):
Values after ≈ are worked out from the molar mass of the structure shown.

Tests used:
[1] = target: Transient receptor potential cation channel subfamily V member 1 (Homo sapiens, UniProt Q8NER1); experiment: Antagonist activity at human TRPV1 expressed in HEK293 cells assessed as inhibition of capsaicin-induced calcium flux; assay type: functional, cell-based
[2] = target: Transient receptor potential cation channel subfamily V member 1 (Rattus norvegicus, UniProt O35433); experiment: Antagonist activity at rat TRPV1 expressed in HEK293 cells assessed as inhibition of capsaicin-induced calcium flux; assay type: functional, cell-based
[3] = Aqueous solubility in fasted-state simulated intestinal fluid at pH 6.8 after 3 days by HPLC; assay type: physicochemical
[4] = Cmax in fasted Sprague-Dawley rat at 2 mg/kg, po; assay type: ADME, organism-based; design: dose 2 mg/kg, route oral; settings: in vivo
[5] = Volume of distribution at steady state in fasted Sprague-Dawley rat at 0.5 mg/kg, iv and 2 mg/kg, po; assay type: ADME, organism-based; settings: in vivo, read-out: Vdss
[6] = Bioavailability in fasted Sprague-Dawley rat at 0.5 mg/kg, iv and 2 mg/kg, po; assay type: ADME, organism-based; settings: in vivo
[7] = system: Rattus norvegicus; experiment: AUC (infinity) in fasted Sprague-Dawley rat at 2 mg/kg, po; assay type: ADME, organism-based, Plasma; design: time infinity, dose 2 mg/kg, route oral; settings: in vivo
[8] = Clearance in fasted Sprague-Dawley rat at 0.5 mg/kg, iv and 2 mg/kg, po; assay type: ADME, organism-based; settings: in vivo
[9] = Tmax in fasted Sprague-Dawley rat at 2 mg/kg, po; assay type: ADME, organism-based; design: dose 2 mg/kg, route oral; settings: in vivo
[10] = Half life in fasted Sprague-Dawley rat at 0.5 mg/kg, iv and 2 mg/kg, po; assay type: ADME, organism-based; settings: in vivo
[11] = Aqueous solubility in simulated gastric fluid at pH 1.2 after 3 days by HPLC; assay type: physicochemical

Transient receptor potential cation channel subfamily V member 1 (Homo sapiens, UniProt Q8NER1), sequence (Q8NER1 whole entry): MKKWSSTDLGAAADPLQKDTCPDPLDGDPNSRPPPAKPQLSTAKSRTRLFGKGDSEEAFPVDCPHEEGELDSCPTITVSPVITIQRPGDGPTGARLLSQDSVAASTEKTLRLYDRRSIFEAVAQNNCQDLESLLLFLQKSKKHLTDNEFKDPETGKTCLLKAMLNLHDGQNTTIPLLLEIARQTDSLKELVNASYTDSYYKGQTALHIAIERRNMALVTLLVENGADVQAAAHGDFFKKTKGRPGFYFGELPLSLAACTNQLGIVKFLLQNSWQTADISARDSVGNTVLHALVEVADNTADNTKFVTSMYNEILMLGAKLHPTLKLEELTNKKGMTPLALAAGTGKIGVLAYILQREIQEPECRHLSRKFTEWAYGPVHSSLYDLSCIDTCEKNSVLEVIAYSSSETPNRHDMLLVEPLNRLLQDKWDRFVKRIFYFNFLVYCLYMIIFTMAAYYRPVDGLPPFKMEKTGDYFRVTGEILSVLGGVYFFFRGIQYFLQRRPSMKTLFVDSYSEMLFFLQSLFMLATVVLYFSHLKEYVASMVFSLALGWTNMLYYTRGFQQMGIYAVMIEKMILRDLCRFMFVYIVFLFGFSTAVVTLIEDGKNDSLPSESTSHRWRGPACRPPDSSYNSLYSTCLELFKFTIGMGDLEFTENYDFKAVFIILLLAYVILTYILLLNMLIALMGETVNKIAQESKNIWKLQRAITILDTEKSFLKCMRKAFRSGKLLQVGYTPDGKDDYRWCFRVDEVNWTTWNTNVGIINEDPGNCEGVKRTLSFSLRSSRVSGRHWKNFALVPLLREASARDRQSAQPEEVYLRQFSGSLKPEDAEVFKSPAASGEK
Transient receptor potential cation channel subfamily V member 1 (Rattus norvegicus, UniProt O35433), sequence (O35433 whole entry): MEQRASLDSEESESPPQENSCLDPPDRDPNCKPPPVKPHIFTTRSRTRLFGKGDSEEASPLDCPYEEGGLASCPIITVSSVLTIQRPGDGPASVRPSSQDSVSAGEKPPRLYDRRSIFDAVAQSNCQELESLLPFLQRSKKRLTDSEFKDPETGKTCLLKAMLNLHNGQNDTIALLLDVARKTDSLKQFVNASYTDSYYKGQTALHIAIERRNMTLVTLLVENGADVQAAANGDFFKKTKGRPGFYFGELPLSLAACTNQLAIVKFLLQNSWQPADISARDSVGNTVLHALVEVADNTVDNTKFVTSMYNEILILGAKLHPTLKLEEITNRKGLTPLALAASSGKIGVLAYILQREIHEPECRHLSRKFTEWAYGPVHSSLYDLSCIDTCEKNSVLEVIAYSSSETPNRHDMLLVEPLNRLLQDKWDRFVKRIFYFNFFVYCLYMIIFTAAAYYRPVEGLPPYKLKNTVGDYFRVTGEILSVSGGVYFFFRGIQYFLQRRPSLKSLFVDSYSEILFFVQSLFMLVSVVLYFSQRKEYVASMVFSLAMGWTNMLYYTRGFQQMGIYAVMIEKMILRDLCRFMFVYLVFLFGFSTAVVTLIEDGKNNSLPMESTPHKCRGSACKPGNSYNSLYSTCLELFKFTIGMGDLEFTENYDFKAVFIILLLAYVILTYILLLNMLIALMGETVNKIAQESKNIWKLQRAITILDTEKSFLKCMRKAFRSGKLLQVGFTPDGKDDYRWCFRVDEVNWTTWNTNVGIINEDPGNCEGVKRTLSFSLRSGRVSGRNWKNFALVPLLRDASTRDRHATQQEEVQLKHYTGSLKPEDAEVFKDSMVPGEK

Row | SMILES | IC50 [1] [nM] | IC50 [2] [nM] | further results
1 | O=C(c1ccc(Nc2ncnc3sc(Nc4c(Cl)cccc4Cl)nc23)cc1)N1CCCC1 | > 5000 | > 5000 | –
2 | FC(F)(F)c1cccc(Nc2ncnc3sc(Nc4c(Cl)cccc4Cl)nc23)c1 | 206 | 192 | –
3 | FC(F)(F)c1ccc(Nc2ncnc3sc(Nc4ncccc4C(F)(F)F)nc23)cc1 | > 5000 | > 5000 | –
4 | NCc1cc(Cl)c(Nc2nc3c(Nc4ccc(C(F)(F)F)cc4)ncnc3s2)c(Cl)c1 | 125 | 54 | –
5 | NC(=O)c1cc(Cl)c(Nc2nc3c(Nc4ccc(C(F)(F)F)cc4)ncnc3s2)c(Cl)c1 | 69 | 57 | –
6 | FC(F)(F)c1ccc(Nc2cccc3sc(Nc4c(Cl)cccc4Cl)nc23)cc1 | > 5000 | > 5000 | –
7 | FC(F)(F)c1ccccc1Nc1ncnc2sc(Nc3c(Cl)cccc3Cl)nc12 | > 5000 | > 5000 | –
8 | NC(=O)c1ccc(Nc2ncnc3sc(Nc4c(Cl)cccc4Cl)nc23)cc1 | > 5000 | > 5000 | –
9 | FC(F)(F)c1ccc(Nc2ncnc3sc(Nc4ccccc4)nc23)cc1 | > 5000 | – | –
10 | FC(F)(F)c1ccc(Sc2ncnc3sc(Nc4c(Cl)cccc4Cl)nc23)cc1 | > 5000 | > 5000 | –
11 | Clc1cccc(Cl)c1Nc1nc2c(Nc3ccccc3)ncnc2s1 | 176 | 170 | –
12 | CC(C)(C)c1ccc(Oc2ncnc3sc(Nc4c(Cl)cccc4Cl)nc23)cc1 | > 5000 | > 5000 | –
13 | O=C(O)c1ccc(Nc2ncnc3sc(Nc4c(Cl)cccc4Cl)nc23)cc1 | > 5000 | > 5000 | –
14 | O=C(O)c1cc(Cl)c(Nc2nc3c(Nc4ccc(C(F)(F)F)cc4)ncnc3s2)c(Cl)c1 | > 5000 | > 5000 | –

Stronger by IC50 [1], values ahead:

Row | IC50 [1] [nM] | IC50 [2] [nM] | SMILES | further results
15 | 59 | 25 | FC(F)(F)c1ccc(Nc2nc(N3CCC3)nc3sc(Nc4c(Cl)cccc4Cl)nc23)cc1 | –
16 | 51 | 14 | Cc1ccccc1Nc1nc2c(Nc3ccc(C(F)(F)F)cc3)ncnc2s1 | –
17 | 43 | 26 | CSc1ccccc1Nc1nc2c(Nc3ccc(C(F)(F)F)cc3)ncnc2s1 | –
18 | 39 | 11 | FC(F)(F)c1ccc(Nc2nc(NCCN3CCOCC3)nc3sc(Nc4c(Cl)cccc4Cl)nc23)cc1 | solubility at 72 h [3]: 10 µg/mL (≈ 17.1 µM); Cmax [4]: 70 nM; Vd [5]: 2.8 L/kg; bioavailability [6]: 17%; AUC [7]: 196 ng·h/mL; clearance [8]: 30 mL/min/kg; Tmax [9]: 2 h; half-life [10]: 1.8 h; solubility at 72 h [11]: 116 µg/mL (≈ 198 µM)
19 | 33 | 32 | Cc1ccc(Nc2ncnc3sc(Nc4c(Cl)cccc4Cl)nc23)cc1 | –
20 | 31 | – | CC(C)(C(=O)O)c1ccc(Nc2ncnc3sc(Nc4c(Cl)cccc4Cl)nc23)cc1 | –
21 | 30 | 16 | FC(F)(F)c1ccc(Nc2nc(N3CCOCC3)nc3sc(Nc4c(Cl)cccc4Cl)nc23)cc1 | –
22 | 12 | 36 | FC(F)(F)c1ccc(Nc2nc(N3CCCC3)nc3sc(Nc4c(Cl)cccc4Cl)nc23)cc1 | –
23 | 10 | 3 | CC(C)c1ccc(Nc2ncnc3sc(Nc4c(Cl)cccc4Cl)nc23)cc1 | –
24 | 9 | 1.6 | Cc1cccc(Cl)c1Nc1nc2c(Nc3ccc(C(F)(F)F)cc3)ncnc2s1 | –
25 | 5 | 3 | CS(=O)(=O)c1ccc(Nc2ncnc3sc(Nc4c(Cl)cccc4Cl)nc23)cc1 | Vd [5]: 2.2 L/kg; clearance [8]: 60 mL/min/kg; half-life [10]: 1.2 h
26 | 3 | 3 | FC(F)(F)c1ccc(Nc2nc(NCC3CC3)nc3sc(Nc4c(Cl)cccc4Cl)nc23)cc1 | –
